From paper PMC4757855, “Discovery of high affinity inhibitors of Leishmania donovani N-myristoyltransferase” (Medchemcomm, 2015)
Entries after “also recorded” stand apart in the source; their conditions may differ. Read-outs that look alike come from different tables or passages of the source.

Legend:
[1] = test system: bone marrow-derived macrophage (BMDM); details: 72 h
Procedure: (§5) colleagues.6 Briefly, bone marrow-derived macrophage (BMDM, 4.2 × 10^4/well of
(§6) 96-well plate ) were incubated at the relevant concentrations of test compounds in
(§7) DMEM medium containing 4% L929 cell and 10% FCS (fetal calf serum). Cells were
(§8) incubated at 37 °C and 5% CO2 for 72 hours. Aalamar blue (10% v/v) was added to
(§9) measuring the fluorescence as described above. Medium without cells containing the
(§10) corresponding concentration of compound was used as a medium control. Assays
were performed in duplicate.

L. donovani amastigotes = assay: L. donovani ex-vivo amastigotes inhibition assay (alamar blue); assay type: cell-based, Leishmania donovani; details: for EC50: Leishmania donovani, ex vivo L. donovani amastigotes, 72 hour incubation, read-out: Ld EC50
Procedure: L. donovani ex-vivo amastigotes inhibition assay. Assays were carried out as
described by Paape and colleagues.
recorded with a 590nm±10nm bandpass filter, POLARstar Optima). Parasites cultured
[1-(readout-medium)/(positive-medium)] x 100%. Assays were carried out in
Macrophage toxicity test. Assays were carried out as described by Paape and […]

LdNMT [2] = target: LdNMT (Leishmania donovani, UniProt D0AB09); assay: biochemical; assay type: biochemical; details: for Ki: apparent Ki calculated from IC50 with Cheng–Prusoff equation
Chain of LdNMT (Leishmania donovani, UniProt D0AB09) (D0AB09 entry or part of it): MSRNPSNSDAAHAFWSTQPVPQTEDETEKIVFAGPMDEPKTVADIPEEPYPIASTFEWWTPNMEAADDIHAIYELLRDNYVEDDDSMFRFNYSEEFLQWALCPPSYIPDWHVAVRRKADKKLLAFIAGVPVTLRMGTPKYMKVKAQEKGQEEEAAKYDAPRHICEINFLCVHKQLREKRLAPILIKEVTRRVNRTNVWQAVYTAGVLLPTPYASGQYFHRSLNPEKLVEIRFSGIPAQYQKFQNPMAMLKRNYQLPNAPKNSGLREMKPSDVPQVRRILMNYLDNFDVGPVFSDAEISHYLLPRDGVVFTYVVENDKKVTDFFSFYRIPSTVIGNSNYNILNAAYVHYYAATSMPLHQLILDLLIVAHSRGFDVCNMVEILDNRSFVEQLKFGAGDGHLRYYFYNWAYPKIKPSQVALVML
Procedure: (§1) Enzyme assay information. All IC 50 determinations were carried out using a 7-diethylamine-3-(4’maleimidylphenyl)-4-methylcoumarin (CPM) fluorescence assay, as described by previously. 2–4 The HsNMT1, PfNMT and PvNMT assays are as described in the literature, for LdNMT the final enzyme concentration and peptide substrates are: [LdNMT]: 400 ng/mL; LdNMT Peptide Substrate: Homo sapiens […]
(§2) was 4.0 μM. IC 50 of an inhibitor was calculated by a nonlinear regression analysis using GraFit 7.0.1 version (Erithacus Software Limited, UK).The values are the mean […]
(§3) Ki values were calculated from the experimentally determined IC 50 values, the substrate concentration ([S]) and the Michaelis-Menten constant (K m) as described by […]

HsNMT1 = target: T1, HsNMT1 (Homo sapiens, UniProt P30419); assay: HsNMT1 enzyme assay (CPM fluorescence); assay type: biochemical; details: apparent Ki calculated from IC50 with Cheng–Prusoff equation, read-out: HsNMT Ki
T1 sequence (P30419 1-496): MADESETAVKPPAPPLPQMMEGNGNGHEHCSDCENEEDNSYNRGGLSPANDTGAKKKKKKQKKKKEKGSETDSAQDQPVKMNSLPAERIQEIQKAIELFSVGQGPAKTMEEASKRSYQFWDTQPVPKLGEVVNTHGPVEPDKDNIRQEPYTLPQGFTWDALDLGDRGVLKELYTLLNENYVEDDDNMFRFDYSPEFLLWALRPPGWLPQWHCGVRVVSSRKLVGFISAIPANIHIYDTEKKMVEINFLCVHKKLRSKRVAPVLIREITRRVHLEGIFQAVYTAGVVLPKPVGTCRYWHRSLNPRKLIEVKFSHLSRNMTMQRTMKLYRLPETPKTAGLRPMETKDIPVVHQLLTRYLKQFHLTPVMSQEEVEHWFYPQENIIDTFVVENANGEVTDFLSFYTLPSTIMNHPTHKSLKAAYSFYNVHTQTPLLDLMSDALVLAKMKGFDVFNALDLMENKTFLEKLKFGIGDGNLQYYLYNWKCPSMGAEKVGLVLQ
Procedure: Enzyme assay information. All IC 50 determinations were carried out using a 7-diethylamine-3-(4’maleimidylphenyl)-4-methylcoumarin (CPM) fluorescence assay, as described by previously. […]
IC 50 of an inhibitor was calculated by a nonlinear regression analysis using GraFit 7.0.1 version (Erithacus Software Limited, UK).The values are the mean […]
as §3

[3] = Stability on incubation over a wide pH range; assay type: physicochemical; details: 37 °C, pH 1–10, 24 hours, data not shown
Excerpt: The binding mode of 10j to Leishmania major NMT (98% sequence identity to LdNMT with closely superimposable ligand binding sites)[14],[29] was confirmed by determination of the crystal structure of the ternary complex of LmNMT, myrisotyl-CoA and 10j (PDB ID:; 5a27). The inhibitor binds in the expected site adjacent to the enzyme's C-terminal carboxylate to which its piperidine forms an ion pairing interaction. This and other key interactions are conserved in a related series in PvNMT.[24] […] This ‘ring opening’ phenomenon has been observed in related compounds within the program,[27] although to our knowledge, it has not been reported elsewhere. The origin of the ring-opened species observed in the crystals remains unclear, and further investigation is underway to determine the cause of this discrepancy (such as potential radiation damage). As characterisation of the compounds was consistent with the proposed oxadiazoles, the development of the series was continued.

PfNMT = target: T2, PfNMT (Plasmodium falciparum, UniProt Q9U419); assay: biochemical; assay type: biochemical; details: for Ki: apparent Ki calculated from IC50 with Cheng–Prusoff equation; for PfNMT LE: LE = [–log(Ki)](1.374)/(no. of heavy atoms)
T2 sequence (Q9U419 1-410): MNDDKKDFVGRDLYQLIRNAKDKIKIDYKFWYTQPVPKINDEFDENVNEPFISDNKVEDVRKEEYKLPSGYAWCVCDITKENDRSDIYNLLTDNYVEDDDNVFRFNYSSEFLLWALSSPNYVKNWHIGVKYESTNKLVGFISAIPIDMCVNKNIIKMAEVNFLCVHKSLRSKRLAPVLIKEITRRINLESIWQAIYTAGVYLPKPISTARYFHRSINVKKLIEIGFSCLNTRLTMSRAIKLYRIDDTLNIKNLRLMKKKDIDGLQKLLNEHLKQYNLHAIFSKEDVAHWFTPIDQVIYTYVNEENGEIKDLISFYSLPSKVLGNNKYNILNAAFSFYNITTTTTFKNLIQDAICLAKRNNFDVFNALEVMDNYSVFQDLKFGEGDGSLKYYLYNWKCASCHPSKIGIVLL
Procedure: as §1
(§4) p60src (2-16) with sequence […]-NH 2 and the final concentration was 4.0 μM. IC 50 of an inhibitor was calculated by a nonlinear regression analysis using GraFit 7.0.1 version (Erithacus Software Limited, UK).The values are the mean value of two determinations; standard deviation is within 20% of the IC 50 unless […]
as §3

PvNMT = target: T3, PvNMT (Plasmodium vivax, UniProt A5K1A2); assay: biochemical; assay type: biochemical; details: for PvNMT LE: LE = [–log(Ki)](1.374)/(no. of heavy atoms); for Ki: apparent Ki calculated from IC50 with Cheng–Prusoff equation
T3 sequence (A5K1A2 1-410): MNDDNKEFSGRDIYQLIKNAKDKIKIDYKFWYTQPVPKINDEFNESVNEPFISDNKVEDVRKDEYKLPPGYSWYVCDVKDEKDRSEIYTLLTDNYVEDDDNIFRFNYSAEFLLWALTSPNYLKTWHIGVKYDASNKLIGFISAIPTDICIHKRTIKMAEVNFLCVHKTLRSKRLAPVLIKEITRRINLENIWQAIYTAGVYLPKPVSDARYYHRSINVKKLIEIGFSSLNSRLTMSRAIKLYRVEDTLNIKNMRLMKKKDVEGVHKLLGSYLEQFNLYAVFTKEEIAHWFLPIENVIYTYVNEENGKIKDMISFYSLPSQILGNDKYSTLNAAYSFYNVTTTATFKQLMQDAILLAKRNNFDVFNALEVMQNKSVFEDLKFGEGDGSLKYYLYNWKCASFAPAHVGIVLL
Procedure: as §1, §4, §3

LdNMT [4] = assay: biochemical; assay type: biochemical
Procedure: as §1, §2, §3

[5] = test system: bone marrow-derived macrophage (BMDM); assay: Macrophage toxicity test (alamar blue); details: top concentration tested 90 μM
Procedure: as §5, §6, §7, §8, §9, §10
were performed in duplicate.

COc1cccc(Cc2noc(-c3cc(OC)ccc3OC3CCNCC3)n2)c1 [Compound 10k]
Macrophage LD50 [1]: 27.9 µM
EC50 (L. donovani amastigotes): 13.5 µM

COc1cccc(Cc2noc(-c3cccc(C)c3OC3CCNCC3)n2)c1 [Compound 10c]
LdNMT LE (LdNMT [2]): 0.29
Ki (LdNMT [2]; […], read-out: LdNMT Ki): 1.43 µM
Ki (HsNMT1): 7.44 µM

COc1cccc(Cc2noc(-c3cccc(OC)c3OC3CCNCC3)n2)c1 [Compound 10b]
LdNMT LE (LdNMT [2]): 0.26
Ki (LdNMT [2]; […], read-out: LdNMT Ki): 4.02 µM
Ki (HsNMT1): 7.23 µM

COc1cccc(Cc2noc(-c3cc(Cl)ccc3OC3CCNCC3)n2)c1 [Compound 10j]
degradation on incubation [3]: no degradation
Macrophage LD50 [1]: 18.0 µM
EC50 (L. donovani amastigotes): 6.7 µM

COc1cccc(Cc2noc(-c3ccc(F)cc3OC3CCNCC3)n2)c1 [Compound 10g]
Macrophage LD50 [1]: 29.5 µM

COc1cccc(COC(=O)c2sccc2OC2CCNCC2)c1 [Compound 5]
Ki (PfNMT): > 100 µM
PvNMT LE (PvNMT): 0.30
Ki (PvNMT): 6.5 µM
LdNMT LE (LdNMT [2]): 0.35
improvement in LdNMT enzyme affinity (LdNMT [2]): 8 fold
Ki (LdNMT [2]; […], read-out: LdNMT Ki): 0.73 µM
IC50 (LdNMT [2]; experimentally determined, substrate 4.0 μM): 0.82 ± 0.14 µM
Ki (HsNMT1): > 100 µM

COc1cccc(Cc2noc(-c3ccc(Br)cc3OC3CCNCC3)n2)c1 [Compound 10h]
Ki (LdNMT [2]; […], read-out: LdNMT Ki): 0.68 µM

COc1cccc(Cc2noc(-c3ccccc3OC3CCNCC3)n2)c1 [Compound 10a]
selectivity in favour of the parasite enzyme (LdNMT over HsNMT) (LdNMT [4]): 20 fold
LdNMT LE (LdNMT [2]): 0.37
improvement in LdNMT enzyme affinity (LdNMT [2]; 5 relative to 1, 10a relative to 6): ~ 4 fold
Ki (HsNMT1): 1.24 µM
EC50 (L. donovani amastigotes): > 30 µM

COc1cccc(COC(=O)c2ccccc2OC2CCNCC2)c1 [Compound 6]
PfNMT LE (PfNMT): 0.29
Ki (PfNMT): 6 µM
PvNMT LE (PvNMT): 0.31
Ki (PvNMT): 2.42 µM
LdNMT LE (LdNMT [2]): 0.36
Ki (LdNMT [2]; […], read-out: LdNMT Ki): 0.28 µM
Ki (HsNMT1): > 100 µM

COc1cccc(Cc2noc(-c3ccc(C)cc3OC3CCNCC3)n2)c1 [Compound 10d]
LdNMT LE (LdNMT [2]): 0.26
Ki (LdNMT [2]; […], read-out: LdNMT Ki): 5.18 µM
Ki (HsNMT1): 4.64 µM

Cc1nn(C)c(C)c1Cc1nnc(-c2cc(Cl)ccc2OC2CCNCC2)o1 [Compound 13]
Ki (LdNMT [2]; […], read-out: LdNMT Ki): 0.01 µM
macrophage toxicity [5]: did not display any macrophage toxicity; also recorded: no macrophage toxicity
Macrophage LD50 [1]: >90 µM
EC50 (L. donovani amastigotes): > 50 µM
effect against ex vivo amastigotes (L. donovani amastigotes; up to 50 μM): no observed effect; also recorded: failed to inhibit

COc1cccc(COC(=O)c2sc3ccccc3c2OC2CCNCC2)c1 [Compound 1]
PfNMT LE (PfNMT): 0.30
Ki (PfNMT): 0.83 µM
PvNMT LE (PvNMT): 0.35
Ki (PvNMT): 0.08 µM
Ki (LdNMT [2]; […], read-out: LdNMT Ki): 5.82 µM
Ki (HsNMT1): 3.2 µM

COc1cccc(Cc2noc(-c3ccc(OC)cc3OC3CCNCC3)n2)c1 [Compound 10e]
Ki (LdNMT [2]; […], read-out: LdNMT Ki): 3.04 µM

COc1cccc(Cc2noc(-c3cc(C)ccc3OC3CCNCC3)n2)c1 [Compound 10i]
Ki (LdNMT [2]; […], read-out: LdNMT Ki): 0.24 µM
